Test results from patent publication US20100121048A1, “Cyclic Amine Compound and Use Thereof for the Prophylaxis or Treatment of Hypertension” (priority 2006, published 2010).

Target: T1, Human renin (Homo sapiens, UniProt P00797)
T1 construct: taking the active type (67-406); made in house; host or cells: FreeStyle 293-F cells (transient expression of pcDNA3.1(+)/hREN)
T1 sequence (P00797 67-406): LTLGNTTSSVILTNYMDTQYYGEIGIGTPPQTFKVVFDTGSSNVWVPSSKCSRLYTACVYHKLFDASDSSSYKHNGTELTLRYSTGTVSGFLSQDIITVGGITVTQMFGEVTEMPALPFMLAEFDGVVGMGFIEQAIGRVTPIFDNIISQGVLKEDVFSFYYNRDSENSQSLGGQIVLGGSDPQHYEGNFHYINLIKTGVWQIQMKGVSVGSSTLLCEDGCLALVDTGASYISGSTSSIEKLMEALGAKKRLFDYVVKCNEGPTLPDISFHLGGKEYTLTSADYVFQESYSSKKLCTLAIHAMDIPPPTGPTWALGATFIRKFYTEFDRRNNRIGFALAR
Assay: Measurement of renin inhibition value (human renin, FITC substrate peptide, capillary electrophoresis)
Type: biochemical
Details: active type renin (67-406), pH 6.0, 37° C., 30 min; for inhibition at 1 µM: test compound 1 μM, read-out: Human Renin Inhibitory Activity: inhibitory activity (%) at 1 μM; for inhibition at 10 µM: test compound 10 μM, read-out: Human Renin Inhibitory Activity: inhibitory activity (%) at 10 μM
Protocol: Human renin was obtained by expressing preprorenin (1-406) in an animal cell, treating the prorenin (24-406) contained in the culture supernatant with trypsin, and taking the active type (67-406).
A plasmid DNA to express human renin in HEK293 cells was prepared as follows. PCR was carried out using human renal cDNA (Clontech Laboratories, Inc., Marathon Ready cDNA) as the template and using two synthetic DNAs (5′-[…]-3′ AND 5′-[…]-3′), and the obtained fragments were cloned using a TOPO TA Cloning Kit (Invitrogen Corp.). The obtained fragments were subcloned into pcDNA3.1(+) that had been cleaved by HindIII and BamHI, thus to obtain a plasmid DNA for human preprorenin expression (PcDNA3.1(+)/hREN).
Expression of human preprorenin was conducted using FreeStyle 293 Expression System (Invitrogen Corp.). According to the manual accompanying the FreeStyle 293 Expression System, the plasmid DNA for human preprorenin expression (pcDNA3.1(+)/hREN) constructed in Experimental Example 1 was used to conduct transient expression by FreeStyle 293-F cells. After transfection of the plasmid DNA, the cells were subjected to shaking culture under the conditions of 37° C., 8% CO2 and 125 rpm for 3 days. A 600-ml aliquot of the culture solution was centrifuged at 2,000 rpm for 10 min to recover the culture supernatant containing prorenin (24-406). The culture supernatant was concentrated by ultrafiltration using a PM10 membrane (Millipore, Inc.) to a volume of about 50 ml, and then was dialyzed against 20 mM Tris-hydrochloric acid (pH 8.0). The dialyzate was fed to a 6-ml RESOURCE Q column (Amersham Biosciences, Inc.) equilibrated with 20 mM Tris-hydrochloric acid (pH 8.0) at a flow rate of 3 ml/min to adsorb the prorenin (24-406). After washing the column with the buffer solution used in the equilibration, elution was carried out by means of a linear concentration gradient of sodium chloride from 0 M to 0.4 M. The fraction containing prorenin (24-406) was collected and concentrated using Vivaspin 20 (molecular weight cut off 10,000; Vivascience, Inc.) to a volume of about 2 ml.
The concentrated liquid was subjected to gel filtration chromatography using HiLoad 16/60 Superdex 200 pg (Amersham Biosciences, Inc.) equilibrated with 20 mM Tris-hydrochloric acid (pH 8.0) containing 0.15 M sodium chloride, at a flow rate of 1.4 ml/min, thus to obtain 3.6 mg of purified prorenin (24-406).
To 3.6 mg of prorenin (24-406) was dissolved in 5.2 ml of 0.1 M Tris-hydrochloric acid (pH 8.0), 12 μg of trypsin (Roche Diagnostics Corp.) was added, and the mixture was allowed to react at 28° C. for 55 min to carry out activation of renin. After the reaction, 0.4 ml of immobilized trypsin inhibitor (Pierce Biotechnology, Inc.) was added to remove the trypsin used in the activation by adsorption. The reaction liquid containing the active type renin was concentrated using Vivaspin 20 (molcular weight cut off 10,000; Vivascience, Inc.), and was diluted with 20 mM Tris-hydrochloric acid (pH 8.0). The diluted liquid was fed to a TSKgel DEAE-5 PW column (7.5 mm I.D.×75 mm, Tosoh Corp.) equilibrated with 20 mM Tris-hydrochloric acid (pH 8.0) at a flow rate of 1 ml/min to adsorb the active type renin (67-406). The column was washed with the buffer solution used for the equilibration, and then elution was carried out by means of a sodium chloride linear concentration gradient from 0 M to 0.3 M, thus to obtain 1.5 mg of a purified product of active type renin (67-406).
5 μl each of the test compound (containing 50% DMSO) was added to each well of a 384-well black plate (Nalge Nunc International Co., Ltd.). Renin was diluted with a buffer solution for reaction (20 mM citric acid-sodium citrate (pH 6.0)) to a concentration of 0.5 μg/ml, and 35 μl each of the dilution was added to each well. […]

inhibition at 1 µM [%] | inhibition at 10 µM [%] | SMILES
104 | 106 | COc1cccc(-n2c(C)cc(C(=O)N3CCNC[C@H]3Cc3ccccc3)c2-c2ccccc2)c1OC [Example 43, (2R)-2-benzyl-1-{[1-(2,3-dimethoxyphenyl)-5-methyl-2-phenyl-1H-pyrrol-3-yl]carbonyl}piperazine]
100 | 102 | CS(=O)(=O)c1ccc(COC[C@@H]2CNCCN2C(=O)c2ncn(-c3cccc(N4CCOCC4)c3)c2-c2ccccc2)cc1 [Example 472, 4-[3-(4-{[(2S)-2-({[4-(methylsulfonyl)benzyl]oxy}methyl)piperazin-1-yl]carbonyl}-5-phenyl-1H-imidazol-1-yl)phenyl]morpholine]
108 | 108 | COc1cccc(-n2cnc(C(=O)N3CCNC[C@H]3Cc3ccccc3)c2-c2ccccc2)c1OC [Example 57, (2R)-2-benzyl-1-([1-(2,3-dimethoxyphenyl)-5-phenyl-1H-imidazol-4-yl]carbonyl}piperazine]
104 | 103 | O=C(c1ncn(-c2cccc(N3CCOCC3)c2)c1-c1ccccc1)N1CCNC[C@H]1Cc1ccccc1 [Example 56, 4-(3-(4-{[(2R)-2-benzylpiperazin-1-yl]carbonyl}-5-phenyl-1H-imidazol-1-yl)phenyl]morpholine]
97 | 101 | O=C(c1ncn(C2Cc3ccccc3C2)c1-c1ccccc1)N1CCNC[C@H]1Cc1ccccc1 [Example 73, (2R)-2-benzyl-1-{[1-(2,3-dihydro-1H-inden-2-yl)-5-phenyl-1H-imidazol-4-yl]carbonyl}piperazine]
102 | 104 | Cc1cc(C(=O)N2CCNC[C@H]2Cc2ccccc2)c(-c2ccccc2)n1-c1cccc(N2CCOCC2)c1 [Example 105, 4-(3-(3-{[(2R)-2-benzylpiperazin-1-yl]carbonyl}-5-methyl-2-phenyl-1H-pyrrol-1-yl)phenyl]morpholine]
100 | 101 | O=C(O)c1ccc(C[C@@H]2CNCCN2C(=O)c2ncn(-c3cccc(N4CCOCC4)c3)c2-c2ccccc2)cc1 [Example 161, 4-[((2R)-1-{[1-(3-morpholinophenyl)-5-phenyl-1H-imidazol-4-yl]carbonyl}piperazin-2-yl)methyl]benzoic acid]
97 | 99 | COc1nc(C(=O)N2CCNC[C@H]2Cc2ccccc2)c(-c2ccccc2)n1-c1ccccc1 [Example 475, (2R)-2-benzyl-1-[(2-methoxy-1,5-diphenyl-1H-imidazol-4-yl)carbonyl]piperazine]
99 | 99 | O=C(c1ncn(C2CCCN(S(=O)(=O)c3ccccc3)C2)c1-c1ccccc1)N1CCNC[C@H]1Cc1ccccc1 (stereo partly drawn) [Example 476, (2R)-2-benzyl-1-({5-phenyl-1-[1-(phenylsulfonyl)piperidin-3-yl]-1H-imidazol-4-yl}carbonyl)piperazine]
99 | 101 | O=C(C[C@H](CCc1ccccc1)n1cnc(C(=O)N2CCNC[C@H]2Cc2ccccc2)c1-c1ccccc1)N1CCOCC1 [Example 478, 4-[(3S)-3-(4-{[(2R)-2-benzylpiperazin-1-yl]carbonyl}-5-phenyl-1H-imidazol-1-yl)-5-phenylpentanoyl]morpholine]
102 | 104 | COc1ccc(S(=O)(=O)N2CCCC(n3cnc(C(=O)N4CCNC[C@H]4Cc4ccccc4)c3-c3ccccc3)C2)cn1 (stereo partly drawn) [Example 477, (2R)-2-benzyl-1-[(1-{1-[(6-methoxypyridin-3-yl)sulfonyl]piperidin-3-yl}-5-phenyl-1H-imidazol-4-yl)carbonyl]piperazine]
105 | 107 | CCCCNc1ccccc1-n1ccc(C(=O)N2CCNCC2Cc2ccccc2)c1-c1ccccc1 (racemic) [Example 99, 2-(3-[(2-benzylpiperazin-1-yl)carbonyl]-2-phenyl-1H-pyrrol-1-yl}-N-butylaniline]
